The record followed here is patent US20120129870A1, “PIPERAZINYL DERIVATIVES USEFUL AS MODULATORS OF THE NEUROPEPTIDE Y2 RECEPTOR” (priority 2007, published 2012).

Molecules are shown by their SMILES.

The target in one assay is T1, NPY Y2 receptor (Homo sapiens, UniProt P49146).
T1 sequence (P49146 1-381): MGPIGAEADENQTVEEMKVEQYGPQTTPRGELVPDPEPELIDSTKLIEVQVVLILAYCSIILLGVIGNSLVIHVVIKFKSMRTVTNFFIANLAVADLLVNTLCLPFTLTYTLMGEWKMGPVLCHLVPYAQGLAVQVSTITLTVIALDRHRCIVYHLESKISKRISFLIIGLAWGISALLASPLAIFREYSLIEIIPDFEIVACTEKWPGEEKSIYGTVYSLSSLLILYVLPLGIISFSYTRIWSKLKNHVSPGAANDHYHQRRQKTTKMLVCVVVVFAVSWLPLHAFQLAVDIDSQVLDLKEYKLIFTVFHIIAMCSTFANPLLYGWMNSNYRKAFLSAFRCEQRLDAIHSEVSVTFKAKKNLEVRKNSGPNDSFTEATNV
The assay is described as follows: Neuropeptide Y2 radioligand binding assay ([125I]PYY, KAN-Ts membranes). Further details: endogenous in cells; host or cells: KAN-Ts cells (membrane preparation). Particulars: KAN-Ts membranes endogenously expressing Y2, [125I]PYY (80 pM), 1 h at rt. The protocol: KAN-Ts endogenously expressing Y2 receptors were used for the radioligand binding assay. Cells were grown to confluence on 150 cm^2 tissue culture plates, washed with phosphate-buffered saline (PBS), and scraped into 50 mL tubes. After centrifugation, the supernatant was aspirated, and the pellets frozen and stored at −80° C. Thawed pellets were homogenized with a polytron tissue grinder for 15 sec in 20 mM Tris-HCl, 5 mM EDTA. The homogenate was centrifuged at 800×g for 5 min and the collected supernatant was recentrifuged at 25000×g for 25 min. The resulting pellet was resuspended in binding buffer (20 mM HEPES, 120 mM NaCl, 0.22 mM KH2PO4, 1.3 mM CaCl2, 0.8 mM MgSO4). Membranes were incubated with [^125I]PYY (80 pM) in the presence or absence of test compound for 1 h at rt. The reaction was stopped by filtration through GF/C filter plates pre-soaked in 0.3% polyethylenimine and subsequently washed with Tris 50 mM, 5 mM EDTA buffer. Plates were dried for 1 h in a 55° C. oven, scintillation fluid was added and the radioactivity was counted in a Packard TopCount. Specific binding to the NPY receptor subtypes was determined by radioactivity that was bound in the presence of […]. Each binding experiment was repeated three to eight times, each in duplicate. IC50 values (i.e. concentration of unlabelled peptide or antagonist required to compete for 50% of specific binding to the radioligand) were calculated using the GraphPad Prism software (GraphPad Software Inc., San Diego Calif.) with a fit to a sigmoidal dose response curve. Apparent K, values were calculated as Ki=IC50/(1+C/KD), where C is concentration of the radioligand.
What is called IC50 is the concentration needed to halve the response being measured. Lower therefore signals greater potency in that assay. Molecule `N#Cc1cc(NC(=O)C2CCC(F)(F)CC2)ccc1N1CCN(C(c2ccccc2)c2ncco2)CC1` (centres unmarked) [Compound 109, 4,4-Difluoro-cyclohexanecarboxylic acid {3-cyano-4-[4-(oxazol-2-yl-phenyl-methyl)-piperazin-1-yl]-phenyl}-amide] gave a half-inhibitory concentration (IC50) of 3600 nM.

In the case of `CCC(CC)C(=O)Nc1ccc(N2CCN(C(c3ccccc3)c3nc(-c4ccccc4)no3)CC2)c(F)c1` (centres unmarked) [Compound 242, 2-Ethyl-N-(3-fluoro-4-{4-[phenyl-(3-phenyl-[1,2,4]-oxadiazol-5-yl)-methyl]-piperazin-1-yl}-phenyl)-butyramide], the IC50 is 71 nM. Compared with the last molecule, the IC50 is about 51-fold lower.

`CC(=O)Nc1ccc(N2CCN(C(c3ccccc3)c3ncco3)CC2)c(F)c1` (centres unmarked) [Compound 104, N-{3-Fluoro-4-[4-(oxazol-2-yl-phenyl-methyl)-piperazin-1-yl]-phenyl}-acetamide] came in with an IC50 greater than 10000 nM.

As to `N#Cc1cc(NC(=O)C2CCCCC2)ccc1N1CCN(C(c2ccccc2)c2ncco2)CC1` (centres unmarked) [Compound 112, Cyclohexanecarboxylic acid {3-cyano-4-[4-(oxazol-2-yl-phenyl-methyl)-piperazin-1-yl]-phenyl}-amide], the half-inhibitory concentration (IC50) worked out at 430 nM. This counts as sub-micromolar.

Molecule `CCC(CC)C(=O)Nc1ccc(N2CCN(C(C#N)c3ccccn3)CC2)c(F)c1` (centres unmarked) [Compound 138, N-{4-[4-(Cyano-pyridin-2-yl-methyl)-piperazin-1-yl]-3-fluoro-phenyl}-2-ethyl-butyramide] had an IC50 greater than 10000 nM.

In the case of `CCC(CC)C(=O)Nc1ccc(N2CCN(C(c3ccccc3)c3nc(C(C)C)no3)CC2)c(F)c1` (centres unmarked) [Compound 241], the IC50 worked out at 35 nM.

`CCC(CC)C(=O)Nc1ccc(N2CCN(C(c3ccc(Cl)cc3)C3CC3)CC2)c(F)c1` (centres unmarked) [Compound 102, N-(4-{4-[(4-Chloro-phenyl)-cyclopropyl-methyl]-piperazin-1-yl}-3-fluoro-phenyl)-2-ethyl-butyramide]: the IC50 was determined as 720 nM.

Take `CCC(CC)C(=O)Nc1ccc(N2CCN(C(c3ccccc3)c3ncno3)CC2)c(F)c1` (centres unmarked) [Compound 231, 2-Ethyl-N-{3-fluoro-4-[4-([1,2,4]-oxadiazol-5-yl-phenyl-methyl)-piperazin-1-yl]-phenyl}-butyramide]: the IC50 was 220 nM.

On to `O=C(Nc1ccc(N2CCN(C(c3ccc(F)cc3)c3ncco3)CC2)c(F)c1)[C@@H]1CCOC1` (stereo in doubt) [Compound 127, Tetrahydro-furan-3-carboxylic acid (3-fluoro-4-{4-[(4-fluoro-phenyl)-oxazol-2-yl-methyl]-piperazin-1-yl}-phenyl)-amide], for which the IC50 was greater than 5000 nM.

For `O=C(Nc1ccc(N2CCN(C(c3ccccc3)c3ncco3)CC2)c(F)c1)C1CCC1` (centres unmarked) [Compound 73, Cyclobutanecarboxylic acid {3-fluoro-4-[4-(oxazol-2-yl-phenyl-methyl)-piperazin-1-yl]-phenyl}-amide], the IC50 amounted to 180 nM.

Regarding `O=C(NC1CCCC1)c1ccc(N2CCN(C(c3ccccc3)c3ncco3)CC2)c(F)c1` (centres unmarked) [Compound 49, N-Cyclopentyl-3-fluoro-4-[4-(oxazol-2-yl-phenyl-methyl)-piperazin-1-yl]-benzamide], the half-inhibitory concentration (IC50) was greater than 10000 nM.

Turning to `CCN(CC)C(=O)Cc1ccc(N2CCN(C(c3ccccc3)c3ccccc3)CC2)c(F)c1` [Compound 51, 2-[4-(4-Benzhydryl-piperazin-1-yl)-3-fluoro-phenyl]-N,N-diethyl-acetamide], the IC50 is 1550 nM.

On to `Cc1cc(NC(=O)C2CCC2)ccc1N1CCN(C(c2ccccc2)c2ncco2)CC1` (centres unmarked) [Compound 76, Cyclobutanecarboxylic acid {3-methyl-4-[4-(oxazol-2-yl-phenyl-methyl)-piperazin-1-yl]-phenyl}-amide], for which the IC50 is 1400 nM.

In the case of `CCC(CC)C(=O)Nc1ccc(N2CCN(C(C(C)=O)c3ccccc3)CC2)c(F)c1` (centres unmarked) [Compound 232, 2-Ethyl-N-{3-fluoro-4-[4-(2-oxo-1-phenyl-propyl)-piperazin-1-yl]-phenyl}-butyramide], the IC50 turned out to be 380 nM. Against the preceding molecule, the IC50 is about 3.7-fold lower.

Molecule `CC(=O)Nc1ccc(N2CCN(C(c3ccccc3)c3ncco3)CC2)c(C#N)c1` (centres unmarked) [Compound 103, N-{3-Cyano-4-[4-(oxazol-2-yl-phenyl-methyl)-piperazin-1-yl]-phenyl}-acetamide] registered an IC50 greater than 10000 nM.

As to `CCC(CC)C(=O)Nc1ccc(N2CCN(C(c3ncco3)C3CCCC3)CC2)c(F)c1` (centres unmarked) [Compound 117, N-{4-[4-(Cyclopentyl-oxazol-2-yl-methyl)-piperazin-1-yl]-3-fluoro-phenyl}-2-ethyl-butyramide], the IC50 is 310 nM.

For `CCC(CC)NC(=O)c1ccc(N2CCN(C(c3ccccc3)c3ncco3)CC2)c(F)c1` (centres unmarked) [Compound 46, N-(1-Ethyl-propyl)-3-fluoro-4-[4-(oxazol-2-yl-phenyl-methyl)-piperazin-1-yl]-benzamide], the half-inhibitory concentration (IC50) was 1200 nM.

`CCC(CC)C(=O)Nc1ccc(N2CCN(C(c3ccc(F)cc3)C3CCC3)CC2)c(F)c1` (centres unmarked) [Compound 106, N-(4-{4-[Cyclobutyl-(4-fluoro-phenyl)-methyl]-piperazin-1-yl}-3-fluoro-phenyl)-2-ethyl-butyramide] showed a half-maximal inhibitory concentration (IC50) of 250 nM.

`CCC(CC)C(=O)Nc1ccc(N2CCN(C(c3ccccc3)C3C(C)C3(Cl)Cl)CC2)c(F)c1` (centres unmarked) [Compound 115, N-(4-{4-[(2,2-Dichloro-3-methyl-cyclopropyl)-phenyl-methyl]-piperazin-1-yl}-3-fluoro-phenyl)-2-ethyl-butyramide]: the IC50 was 450 nM. This IC50 lies about 1.8-fold higher than the previous one.

Molecule `O=C(NCc1ccc(N2CCN(C(c3ccccc3)c3ncco3)CC2)c(F)c1)C1CC1` (centres unmarked) [Compound 171, Cyclopropanecarboxylic acid 3-fluoro-4-[4-(oxazol-2-yl-phenyl-methyl)-piperazin-1-yl]-benzylamide] returned an IC50 greater than 10000 nM.

With `CCC(CC)C(=O)Nc1ccc(N2CCN(C(C#N)c3ccccc3C#N)CC2)c(F)c1` (centres unmarked) [Compound 136, N-(4-{4-[Cyano-(2-cyano-phenyl)-methyl]-piperazin-1-yl}-3-fluoro-phenyl)-2-ethyl-butyramide], the 50% inhibitory concentration (IC50) stood at 9800 nM.

Molecule `CCC(CC)C(=O)Nc1ccc(N2CCN(C(c3ccc(OC)cc3)c3ncco3)CC2)c(F)c1` (centres unmarked) [Compound 140, 2-Ethyl-N-(3-fluoro-4-{4-[(4-methoxy-phenyl)-oxazol-2-yl-methyl]-piperazin-1-yl}-phenyl)-butyramide] displayed a half-maximal inhibitory concentration (IC50) of 320 nM.

For `O=C(Nc1ccc(N2CCN(C(c3ccccc3)c3ncco3)CC2)c(F)c1)C1CCCCC1` (centres unmarked) [Compound 107, Cyclohexanecarboxylic acid {3-fluoro-4-[4-(oxazol-2-yl-phenyl-methyl)-piperazin-1-yl]-phenyl}-amide], the IC50 turned out to be 1200 nM. This IC50 lies about 3.8-fold higher than the previous one.

Staying with this assay, now noted: apparent Ki=IC50/(1+C/KD).
Regarding `CCC(CC)C(=O)Nc1ccc(N2CCN(C(c3ccc(F)cc3)c3ccc(F)cc3)CC2)c(C#N)c1` [Compound 307, N-(4-{4-[Bis(4-fluorophenyl)methyl]piperazin-1-yl}-3-cyanophenyl)-2-ethylbutanamide], the Ki came to 150 nM.

As to `CCC(CC)C(=O)Nc1ccc(N2CCN(C(c3ccccc3)c3ccc(Cl)cc3)CC2)c(C#N)c1` (centres unmarked) [Compound 311, N-(4-{4-[(4-Chloro-phenyl)-phenyl-methyl]-piperazin-1-yl}-3-cyano-phenyl)-2-ethyl-butyramide], the Ki came to 63 nM.

As to `N#Cc1cc(NC(=O)C2CC2)ccc1N1CCN(C(c2ccccc2)c2ccncc2)CC1` (centres unmarked) [Compound 322, Cyclopropanecarboxylic acid {3-cyano-4-[4-(phenyl-pyridin-4-yl-methyl)-piperazin-1-yl]-phenyl}-amide], the Ki stood at 34 nM.
